Data taken from patent publication US20020192194A1, “Production and use of dopaminergic cells to treat dopaminergic deficiencies” (priority 2000, published 2002).

What was measured:
[1] = test system: hNT neurons; assay: TH expression of hNT neurons treated with lithium chloride (TH immunoreactivity counts); format: cell-based, human; conditions: 1.0 mM, 5-day cultures
Protocol: A small-scale dose range study analyzed whether therapeutic (0.5-1.0 mM) and clinically toxic (2.0-6.0 mM) concentrations of LiCl enhanced TH expression in cells treated for 6 weeks with retinoic acid and then LiCl. The control and lithium-treated cultures (0.5, 1.0 and 3.0 mM) were scored for TH immunoreactivity, which was expressed as the number of TH-positive (TH+) cells/well. For TH immunohistochemistry the cells were rinsed in 0.1 M phosphate buffered saline (PBS), fixed in 4% paraformaldehyde, and then again rinsed in PBS. […] To determine the percentage of cells labeled by a particular antibody in representative experiments, the numbers of labeled and unlabeled cells were assessed in a blind-coded manner using a 20X objective and a photographic frame. […]
To investigate the effect of various doses of LiCl on tyrosine hydroxylase expression in 5 DIV hNT neurons, we determined the number of unlabeled and TH+ neurons in a blind coded manner using a 20X objective and a photographic frame (field=0.3 mm^2). […] The dose responsive tests were analyzed using a one-way analysis of variance (ANOVA) followed by post hoc comparisons using Bonferroni-Dunn analysis.

[2] = test system: hNT neurons; assay: Soma size and neurite outgrowth of TH+ hNT cells (image analysis); format: cell-based, human; conditions: 5 days in culture
Protocol: The same series of slides immunostained for TH were employed to measure the soma size (μm^2) and neurite outgrowth (μm) of appropriately 50 TH+ cells per representative culture experiment using a computerized image analysis program (Image-Pro Plus, Media Cybernetics, Inc., Silver Springs, Md.) at 20X objective. The results in the morphological assessment study are reported as mean ±SEM and were analyzed using Student's t-test.

| Compound | numbers of TH+ hNT cells vs control [1] | neurite outgrowth vs control [2] | soma size vs control [2] |
| --- | --- | --- | --- |
| [Cl-].[K+] [KCl] | not significantly different | did not significantly differ from control values | not significantly different from control |
| [Cl-].[Na+] [NaCl] | not significantly different | did not significantly differ from control values | not significantly different from control |
